Results published in patent US20210369853A1, “TARGETED PROTEASE DEGRADATION PLATFORM” (EUBULUS BIOTHERAPEUTICS INC., priority 2018, published 2021).
pEC50: −log10 of the molar value. Where two headings read alike, the source gives them in different places.

How the values were obtained:
Type in all cases: cell-based
[1] = system: Human cervical adenocarcinoma cells Hela; test: Cell proliferation experiment (Alarm blue, 72 h, EC50)
Summary of the method: (§1)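 Single-cell suspensions from log-phase cultures are plated, compound in complete medium is added at 5-fold dilution steps (two replicates each), and cells grow for 72 h. Viability is then measured as Alamar blue fluorescence, giving EC50 by sigmoidal fitting.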

[2] = system: Human Monocytic Leukemia MV4-11; test: as above
Summary of the method: as §1

[3] = target: T1, BRD4 (Homo sapiens, UniProt O60885); test: Western blot, protein degradation (DC50)
T1 construct: endogenous in cells
Method: (§2) Cells were treated with the compound for a period of time, after that the cells were collected by centrifugation. After washing with PBS, the cells were lysed by adding RIPA buffer; the cell lysate were added to the loading buffer and then appropriate volume were taken and slowly added to the corresponding wells of the gel plate, and run the SDS-PAGE gel (4%-12%). After running the gel, transferred to the PVDF membrane and sealed with 5% skimmed milk powder at room temperature for 1 hour. The membrane was placed in the primary antibody diluted with 5% skimmed milk powder and shaked slowly overnight at 4° C. After incubation with primary antibody, the membrane was washed 3 times using a TBST shaker; added secondary antibody diluted with 5% skimmed milk powder corresponding to the primary antibody, and shaked slowly at room temperature for 1 hour. After incubation with secondary antibody, the membrane was washed 3 times using the TBST shaker again. The PVDF membrane was flatted in the cassette, the strip was evenly infiltrated with ECL developer solution, and placed in ChemDoc XRS+ gel imager for taking pictures. The intensity of protein bands was analyzed quantitatively using ImageJ software.

[4] = target: T2, PLK1 (Homo sapiens, UniProt P53350); test: Western blot, protein degradation (DC50)
T2 construct: endogenous in cells
T2 sequence (P53350 whole entry): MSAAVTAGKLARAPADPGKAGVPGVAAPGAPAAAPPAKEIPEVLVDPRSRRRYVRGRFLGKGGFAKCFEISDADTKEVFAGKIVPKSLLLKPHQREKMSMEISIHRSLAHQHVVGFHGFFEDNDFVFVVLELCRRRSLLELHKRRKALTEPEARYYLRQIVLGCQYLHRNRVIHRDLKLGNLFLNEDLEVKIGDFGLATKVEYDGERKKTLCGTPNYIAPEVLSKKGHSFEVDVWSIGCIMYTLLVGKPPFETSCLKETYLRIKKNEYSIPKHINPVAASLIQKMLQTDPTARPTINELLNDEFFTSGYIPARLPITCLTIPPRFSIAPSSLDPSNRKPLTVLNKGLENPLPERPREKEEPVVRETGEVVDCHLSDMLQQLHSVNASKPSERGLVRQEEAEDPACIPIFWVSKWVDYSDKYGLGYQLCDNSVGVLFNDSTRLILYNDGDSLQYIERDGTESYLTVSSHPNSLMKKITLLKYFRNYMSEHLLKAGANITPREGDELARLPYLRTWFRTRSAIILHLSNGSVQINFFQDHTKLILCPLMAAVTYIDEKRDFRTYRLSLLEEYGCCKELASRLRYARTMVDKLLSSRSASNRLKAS
Method: as §2

[5] = system: Human Colon Cancer HCT-116; test: Cell proliferation experiment (Alarm blue, 72 h, EC50); conditions: HCT116 cells
Summary of the method: as §1

[6] = system: Human Small Cell Lung Cancer NCI-H82; test: as above; conditions: NCIH82 cells
Summary of the method: as §1

[7] = Homo sapiens, MV4-11, MV4;11 cells
[8] = 6 h, western blot, read-out: BRD4 DC50 (6 h)
[9] = 6 h, western blot, read-out: PLK1 DC50 (6 h)
[10] = 24 h, read-out: BRD4 DC50 (24 h)
[11] = 24 h, read-out: PLK1 DC50 (24 h)

SMILES | pEC50 ([1]; Homo sapiens) | pEC50 [2, 7] | DC50 [3, 8] | DC50 [4, 9] | pEC50 ([5]; Homo sapiens, HCT-116) | pEC50 ([6]; Homo sapiens, NCI-H82) | other results
CC[C@@H]1c2nncn2-c2cnc(Nc3ccc(C(=O)NCCOCCOCCOCCOCC(=O)N[C@H](C(=O)N4C[C@H](O)C[C@H]4C(=O)NCc4ccc(-c5scnc5C)cc4)C(C)(C)C)cc3OC)nc2N1C1CCCC1 [UB-180523] | < 6.00 | 7.00 to 8.00 | > 1 µM | > 1 µM |  |  | 
CC[C@@H]1c2c(C#N)ncn2-c2cnc(Nc3ccc(C(=O)NCCOCCOCCOCCOCC(=O)N[C@H](C(=O)N4C[C@H](O)C[C@H]4C(=O)NCc4ccc(-c5scnc5C)cc4)C(C)(C)C)cc3OC)nc2N1C1CCCC1 [UB-180525] | < 6.00 | 7.00 to 8.00 | > 1 µM | > 1 µM |  |  | 
CC[C@@H]1c2c(C#N)ncn2-c2cnc(Nc3ccc(C(=O)NCCOCCOCCOCCC(=O)N[C@H](C(=O)N4C[C@H](O)C[C@H]4C(=O)NCc4ccc(-c5scnc5C)cc4)C(C)(C)C)cc3OC)nc2N1C1CCCC1 [UB-180529] | < 6.00 | 7.00 to 8.00 | > 1 µM | > 1 µM |  |  | 
CC[C@@H]1c2c(C#N)ncn2-c2cnc(Nc3ccc(C(=O)NCCOCCOCCOCCOCC(=O)Nc4cccc5c4CN(C4CCC(=O)NC4=O)C5=O)cc3OC)nc2N1C1CCCC1 (stereo partly shown) [UB-180560] | < 6.00 | 6.00 to 7.00 |  |  |  |  | 
CC[C@@H]1c2nncn2-c2cnc(Nc3ccc(C(=O)NCCOCCOCCOCCOCC(=O)Nc4cccc5c4CN(C4CCC(=O)NC4=O)C5=O)cc3OC)nc2N1C1CCCC1 (stereo partly shown) [UB-180561] |  |  |  |  |  |  | pEC50 [1]: < 6.00; pEC50 ([2]; MV4;11 cells): < 6.00
CC[C@@H]1c2c(C#N)ncn2-c2cnc(Nc3ccc(C(=O)NCCOCCOCC(=O)N[C@H](C(=O)N4C[C@H](O)C[C@H]4C(=O)NCc4ccc(-c5scnc5C)cc4)C(C)(C)C)cc3OC)nc2N1C1CCCC1 [UB-180563] | < 6.00 | 6.00 to 7.00 |  |  |  |  | 
CC[C@@H]1c2nncn2-c2cnc(Nc3ccc(C(=O)NCCOCCOCC(=O)N[C@H](C(=O)N4C[C@H](O)C[C@H]4C(=O)NCc4ccc(-c5scnc5C)cc4)C(C)(C)C)cc3OC)nc2N1C1CCCC1 [UB-180564] | < 6.00 | 6.00 to 7.00 |  |  |  |  | 
CC[C@@H]1C(=O)N(C)c2cnc(Nc3ccc(C(=O)NCCOCCNCCCC(=O)Nc4cccc5c4CN(C4CCC(=O)NC4=O)C5=O)cc3OC)nc2N1Cc1ccc(Br)cc1 (stereo partly shown) [UB-180626] |  |  |  |  |  |  | pEC50 [5]: < 6.00; pEC50 [6]: < 6.00; pEC50 ([2]; MV4;11 cells): 7.00 to 8.00

Now from value to compound, other results behind:

pEC50 ([1]; Homo sapiens) | pEC50 [2, 7] | DC50 [3, 8] | DC50 [4, 9] | pEC50 ([5]; Homo sapiens, HCT-116) | pEC50 ([6]; Homo sapiens, NCI-H82) | SMILES | other results
< 6.00 | < 6.00 |  |  |  |  | CC[C@@H]1c2nncn2-c2cnc(Nc3ccc(C(=O)NCCOCCOCCOCCOCCC(=O)Nc4cccc5c4CN(C4CCC(=O)NC4=O)C5=O)cc3OC)nc2N1C1CCCC1 (stereo partly shown) [UB-180562] | 
 | > 8.00 | < 0.01 µM | < 0.01 µM | 6.00 to 7.00 | < 6.00 | CC[C@@H]1C(=O)N(C)c2cnc(Nc3ccc(C(=O)NCCOCCOCCOCC(=O)Nc4cccc5c4CN(C4CCC(=O)NC4=O)C5=O)cc3OC)nc2N1Cc1ccc(Br)cc1 (stereo partly shown) [UB-180566] | 
 | 7.00 to 8.00 |  |  | < 6.00 | < 6.00 | CC[C@@H]1C(=O)N(C)c2cnc(Nc3ccc(C(=O)NCCOCCNCCCC(=O)Nc4cccc5c4CN(C4CCC(=O)NC4=O)C5=O)cc3OC)nc2N1Cc1ccc(Br)cc1 (stereo partly shown) [UB-180625] | DC50 [3, 10]: < 0.01 µM; DC50 [4, 11]: < 0.01 µM
 | 7.00 to 8.00 |  |  | < 6.00 | < 6.00 | CC[C@@H]1C(=O)N(C)c2cnc(Nc3ccc(C(=O)NCCCNCCCCCCC(=O)Nc4cccc5c4CN(C4CCC(=O)NC4=O)C5=O)cc3OC)nc2N1Cc1ccc(Br)cc1 (stereo partly shown) [UB-180627] | DC50 [3, 10]: < 0.01 µM; DC50 [4, 11]: 0.1 to 1 µM
 | 7.00 to 8.00 |  |  | < 6.00 | < 6.00 | CC[C@@H]1C(=O)N(C)c2cnc(Nc3ccc(C(=O)NCCCNCCCCCCCC(=O)Nc4cccc5c4CN(C4CCC(=O)NC4=O)C5=O)cc3OC)nc2N1Cc1ccc(Br)cc1 (stereo partly shown) [UB-180628] | 
